# Patent publication US20240238265A1 (priority 2020, published 2024)
# Where a name gives a salt, the structure may show the parent alone. Read-outs that look alike come from different tables or passages of the source.
# What was measured:
# [1] = test system: pseudotyped VSV expressing BDBV glycoprotein; test: microbe, parasite or virus in culture; type: cell-based, Bundibugyo virus (BDBV); conditions: Vesicular stomatitis virus, Vero, 24 h, read-out: EC50 (uM) Pseudotype Assays BDBV
# [2] = test system: pseudotyped VSV expressing EBOV glycoprotein; test: microbe, parasite or virus in culture; type: cell-based, Ebola virus (EBOV); conditions: read-out: EC50 (uM) Pseudotype Assays EBOV
# [3] = test system: pseudotyped VSV expressing SUDV glycoprotein; test: microbe, parasite or virus in culture; type: cell-based, Sudan virus (SUDV); conditions: read-out: EC50 (uM) Pseudotype Assays SUDV
# [4] = test system: pseudotyped VSV expressing MARV glycoprotein; test: microbe, parasite or virus in culture; type: cell-based, Marburg virus (MARV); conditions: Vesicular stomatitis virus, Vero, 24 h, read-out: EC50 (uM) Pseudotype Assays MARV
# [5] = 1 h, pH 7.4
# [6] = 1 h, pH 7.4; remark: listed apart in the source
# [7] = in vitro; conditions: African green monkey
# [8] = 1 h, pH 7.4; remark: listed apart in the source
# [9] = 1 h, pH 7.4; remark: listed apart in the source
# [10] = test system: WT EBOV-Mayinga; test: microbe, parasite or virus in culture; type: cell-based, Ebola virus (EBOV); conditions: Zaire ebolavirus
# [11] = Vesicular stomatitis virus, Vero, 24 h
compound,measurement,setting,value
CC12CC3CC(C(=S)N4CC[C@H](N)C(C)(C)C4)(C1)CC(c1ccccc1)(C3)C2 (mixture of isomers) [Example C1],EC50,[1],0.085 µM
same,EC50,"[2]; Zaire ebolavirus, Vero, 24 h",0.06 µM
same,EC50,[3]; [11],0.035 µM
CC12CC3CC(C(=S)N[C@H]4CC[C@H](N)CC4)(C1)CC(c1ccccc1)(C3)C2 (mixture of isomers) [Example C2],EC50,[1],0.085 µM
same,EC50,"[2]; Zaire ebolavirus, Vero, 24 h",0.06 µM
same,EC50,[3]; [11],0.07 µM
CC12CC3CC(C(=S)N[C@H]4CN5CCC4CC5)(C1)CC(c1ccccc1)(C3)C2 (mixture of isomers) [Example C3],EC50,[1],0.24 µM
same,EC50,"[2]; Zaire ebolavirus, Vero, 24 h",0.17 µM
same,EC50,[3]; [11],0.1 µM
"N[C@H]1CC[C@H](NC(=O)C23CC4CC(CCl)(C2)CC(c2ccccc2)(C4)C3)CC1 (mixture of isomers) [Example E1, rac-trans-N-(4-aminocyclohexyl)-3-(chloromethyl)-5-phenyladamantane-1-carboxamide hydrochloride]",EC50,[4],> 1 µM
same,"Percent parent compound remaining at 60 minutes in liver microsomes, Guinea Pig",[5],100%
same,EC50,[1],0.12 µM
same,"Percent parent compound remaining at 60 minutes in liver microsomes, Mouse",[6],69%
same,CC50,[7],13800 nM
same,"Percent parent compound remaining at 60 minutes in liver microsomes, Human",[8],89%
same,EC50,"[2]; Zaire ebolavirus, Vero, 24 h",0.034 µM
same,EC50,[3]; [11],0.56 µM
same,"Percent parent compound remaining at 60 minutes in liver microsomes, Monkey",[9],72%
"CC1(C)CN(C(=O)C23CC4CC(CCl)(C2)CC(c2ccccc2)(C4)C3)CC[C@@H]1N (mixture of isomers) [Example E2, rac-((S)-4-amino-3,3-dimethylpiperidin-1-yl)(3-(chloromethyl)-5-phenyladamantan-1-yl)methanone]",EC50,[4],> 1 µM
same,EC50,[1],0.35 µM
same,CC50,[7],36900 nM
same,EC50,"[2]; Zaire ebolavirus, Vero, 24 h",0.057 µM
same,EC50,[3]; [11],0.165 µM
"N[C@H]1CC[C@H](NC(=O)C23CC4CC(Br)(C2)CC(c2ccccc2)(C4)C3)CC1 (mixture of isomers) [Example E3, rac-trans-N-(4-aminocyclohexyl)-3-bromo-5-phenyladamantane-1-carboxamide]","Percent parent compound remaining at 60 minutes in liver microsomes, Guinea Pig",[5],96%
same,EC50,[1],0.19 µM
same,"Percent parent compound remaining at 60 minutes in liver microsomes, Human",[8],97.5%
same,EC50,"[2]; Zaire ebolavirus, Vero, 24 h",0.061 µM
same,EC50,[3]; [11],0.34 µM
same,"Percent parent compound remaining at 60 minutes in liver microsomes, Monkey",[9],91%
"CSCC12CC3CC(C(=O)N[C@H]4CC[C@H](N)CC4)(C1)CC(c1ccccc1)(C3)C2 (mixture of isomers) [Example E6, rac-trans-N-(4-aminocyclohexyl)-3-((methylthio)methyl)-5-phenyladamantane-1-carboxamide]",EC50,[4],> 1 µM
same,EC50,[1],0.6 µM
same,CC50,[7],34600 nM
same,EC50,"[2]; Zaire ebolavirus, Vero, 24 h",0.05 µM
same,EC50,[3]; [11],0.75 µM
"N[C@H]1CC[C@H](NC(=O)C23CC4CC(CSc5ccccc5)(C2)CC(c2ccccc2)(C4)C3)CC1 (mixture of isomers) [Example E7, rac-trans-N-(4-aminocyclohexyl)-3-phenyl-5-((phenylthio)methyl)adamantane-1-carboxamide]",EC50,[4],> 1 µM
same,EC50,[1],1.21 µM
same,CC50,[7],4750 nM
same,EC50,"[2]; Zaire ebolavirus, Vero, 24 h",0.056 µM
same,EC50,[3]; [11],> 1 µM
"CC1(C)CN(C(=O)C23CC4CC(CSc5ccccc5)(C2)CC(c2ccccc2)(C4)C3)CC[C@@H]1N (mixture of isomers) [Example E8, rac-((S)-4-amino-3,3-dimethylpiperidin-1-yl)(3-phenyl-5-((phenylthio)methyl)adamantan-1-yl)methanone]",EC50,[4],> 1 µM
same,EC50,[1],> 1 µM
same,EC50,"[2]; Zaire ebolavirus, Vero, 24 h",0.145 µM
same,EC50,[3]; [11],> 1 µM
"CC1(C)CN(C(=S)[C@@]23C[C@H]4C[C@@](C)(C2)C[C@](c2ccccc2)(C4)C3)CC[C@@H]1N [Example A1, ((S)-4-amino-3,3-dimethylpiperidin-1-yl)((1 S,3R,5R,7S)-3-methyl-5-phenyladamantan-1-yl)methanethione]",EC50,[4],> 1 µM
same,"Percent parent compound remaining at 60 minutes in liver microsomes, Guinea Pig",[5],32%
same,EC50,[1],0.11 µM
same,CC50,[7],3800 nM
same,"Percent parent compound remaining at 60 minutes in liver microsomes, Human",[8],72%
same,EC50,"[2]; Zaire ebolavirus, Vero, 24 h",0.061 µM
same,EC50,[3]; [11],0.043 µM
same,"Percent parent compound remaining at 60 minutes in liver microsomes, Monkey",[9],19%
C[C@]12CC3CC(C(=S)N[C@H]4CN5CCC4CC5)(C1)C[C@@](c1ccccc1)(C3)C2 [Example A3],EC50,[4],> 1 µM
same,EC50,[1],0.29 µM
same,CC50,[7],1770 nM
same,EC50,"[2]; Zaire ebolavirus, Vero, 24 h",0.067 µM
same,EC50,[3]; [11],0.08 µM
C[C@]12CC3CC(C(=S)N4CCC(N)CC4)(C1)C[C@@](c1ccccc1)(C3)C2 [Example A4],EC50,[1],0.06 µM
same,CC50,[7],4090 nM
same,EC50,"[2]; Zaire ebolavirus, Vero, 24 h",0.085 µM
same,EC50,[3]; [11],0.04 µM
C[C@]12CC3CC(C(=S)N[C@H]4CC[C@@H](N)CC4)(C1)C[C@@](c1ccccc1)(C3)C2 [Example A5],EC50,[1],0.19 µM
same,EC50,"[2]; Zaire ebolavirus, Vero, 24 h",0.12 µM
same,EC50,[3]; [11],0.125 µM
C[C@]12CC3CC(C(=S)NC4CCNCC4)(C1)C[C@@](c1ccccc1)(C3)C2 [Example A6],EC50,[1],0.085 µM
same,CC50,[7],4720 nM
same,EC50,"[2]; Zaire ebolavirus, Vero, 24 h",0.064 µM
same,EC50,[3]; [11],0.08 µM
C[C@]12CC3CC(C(=S)N[C@H]4CC[C@H](CN)CC4)(C1)C[C@@](c1ccccc1)(C3)C2 [Example A7],EC50,[1],0.09 µM
same,CC50,[7],2860 nM
same,EC50,"[2]; Zaire ebolavirus, Vero, 24 h",0.075 µM
same,EC50,[3]; [11],0.095 µM
CC1(C)CN(C(=S)C23CC4C[C@](C)(C2)C[C@@](c2ccccc2)(C4)C3)CC[C@@H]1N [Example B1],EC50,[1],0.4 µM
same,EC50,"[2]; Zaire ebolavirus, Vero, 24 h",0.74 µM
same,EC50,[3]; [11],0.26 µM
C[C@@]12CC3CC(C(=S)N[C@H]4CC[C@H](N)CC4)(C1)C[C@](c1ccccc1)(C3)C2 [Example B2],EC50,[1],0.16 µM
same,CC50,[7],3720 nM
same,EC50,"[2]; Zaire ebolavirus, Vero, 24 h",0.09 µM
same,EC50,[3]; [11],0.26 µM
C[C@@]12CC3CC(C(=S)N[C@H]4CN5CCC4CC5)(C1)C[C@](c1ccccc1)(C3)C2 [Example B3],EC50,[4],> 1 µM
same,EC50,[1],0.31 µM
same,EC50,"[2]; Zaire ebolavirus, Vero, 24 h",0.66 µM
same,EC50,[3]; [11],0.36 µM
"N[C@H]1CC[C@H](NC(=S)C2C3CC4CC2CC(c2ccccc2)(C4)C3)CC1 (stereo partly drawn) [Example D1, trans-N-(4-aminocyclohexyl)-5-phenyladamantane-2-carbothioamide]",EC50,[1],0.3 µM
same,EC50,"[2]; Zaire ebolavirus, Vero, 24 h",0.21 µM
same,EC50,[3]; [11],0.29 µM
CCCC1C2CC3(C(=O)N[C@H]4CC[C@H](N)CC4)CC1CC(c1ccccc1)(C2)C3 (stereo partly drawn) [Example F3],EC50,[4],1.6 µM
same,"Percent parent compound remaining at 60 minutes in liver microsomes, Guinea Pig",[5],48%
same,EC50,[1],0.08 µM
same,"Percent parent compound remaining at 60 minutes in liver microsomes, Mouse",[6],26%
same,EC50,[10]; read-out: WT EBOV-Mayinga EC50 (uM),~0.008 µM
same,EC90,[10]; read-out: WT EBOV-Mayinga EC90 (uM),~0.01 µM
same,CC50,[7],4650 nM
same,"Percent parent compound remaining at 60 minutes in liver microsomes, Human",[8],91%
same,EC50,"[2]; Zaire ebolavirus, Vero, 24 h",0.005 µM
same,EC50,[3]; [11],0.39 µM
same,"Percent parent compound remaining at 60 minutes in liver microsomes, Monkey",[9],100%
CC(C)CC1C2CC3(C(=O)N[C@H]4CC[C@H](N)CC4)CC1CC(c1ccccc1)(C2)C3 (stereo partly drawn) [Example F4],EC50,[4],1.38 µM
same,EC50,[1],0.3 µM
same,CC50,[7],5800 nM
same,EC50,"[2]; Zaire ebolavirus, Vero, 24 h",0.016 µM
same,EC50,[3]; [11],0.86 µM
CCC1C2CC3(C(=O)N4CC[C@H](N)C(C)(C)C4)CC1CC(c1ccccc1)(C2)C3 (stereo partly drawn) [Example F5],CC50,[7],12300 nM
same,EC50,"[2]; Zaire ebolavirus, Vero, 24 h",0.046 µM
same,EC50,[3]; [11],0.1 µM
"CC1(O)C2CC3(C(=O)N[C@H]4CC[C@H](N)CC4)CC1CC(c1ccccc1)(C2)C3 (stereo partly drawn) [Example H1, trans-N-(4-aminocyclohexyl)-6-hydroxy-6-methyl-3-phenyladamantane-1-carboxamide]",EC50,"[2]; Zaire ebolavirus, Vero, 24 h",> 1 µM
same,EC50,[3]; [11],> 1 µM
"CC1(O)C2CC3(C(=O)N[C@H]4CC[C@H](N)CC4)CC1CC(c1ccccc1)(C2)C3 (stereo partly drawn) [Example H2, trans-N-(4-aminocyclohexyl)-6-hydroxy-6-methyl-3-phenyladamantane-1-carboxamide]",EC50,[2],> 1 µM
same,EC50,[3],> 1 µM
"CCC1(Cl)C2CC3(C(=O)N4CC[C@H](N)C(C)(C)C4)CC1CC(c1ccccc1)(C2)C3 (stereo partly drawn) [Example H3, ((S)-4-amino-3,3-dimethylpiperidin-1-yl)(6-chloro-6-ethyl-3-phenyladamantan-1-yl)methanone]",CC50,[7],14700 nM
same,EC50,"[2]; Zaire ebolavirus, Vero, 24 h",0.063 µM
same,EC50,[3]; [11],0.17 µM
"N[C@H]1CC[C@H](NC(=O)C23CC4CC(c5ccccc5)(CC(C2)C4CCF)C3)CC1 (stereo partly drawn) [Example H4, trans-N-(4-aminocyclohexyl)-6-(2-fluoroethyl)-3-phenyladamantane-1-carboxamide]","Percent parent compound remaining at 60 minutes in liver microsomes, Guinea Pig",[5],80.5%
same,"Percent parent compound remaining at 60 minutes in liver microsomes, Mouse",[6],39%
same,CC50,[7],25100 nM
same,"Percent parent compound remaining at 60 minutes in liver microsomes, Human",[8],81%
same,EC50,"[2]; Zaire ebolavirus, Vero, 24 h",0.014 µM
same,EC50,[3]; [11],0.16 µM
"N[C@H]1CC[C@H](NC(=O)C23CC4CC(c5ccccc5)(CC(C2)C4CCCl)C3)CC1 (stereo partly drawn) [Example H5, trans-N-(4-aminocyclohexyl)-6-(2-chloroethyl)-3-phenyladamantane-1-carboxamide]","Percent parent compound remaining at 60 minutes in liver microsomes, Guinea Pig",[5],80.5%
same,"Percent parent compound remaining at 60 minutes in liver microsomes, Mouse",[6],35%
same,CC50,[7],7260 nM
same,"Percent parent compound remaining at 60 minutes in liver microsomes, Human",[8],85%
same,EC50,"[2]; Zaire ebolavirus, Vero, 24 h",0.01 µM
same,EC50,[3]; [11],0.27 µM
"N[C@H]1CC[C@H](NC(=O)C23CC4CC(c5ccccc5)(CC(C2)C4CC(F)F)C3)CC1 (stereo partly drawn) [Example H6, trans-N-(4-aminocyclohexyl)-6-(2,2-difluoroethyl)-3-phenyladamantane-1-carboxamide]",CC50,[7],22200 nM
same,EC50,"[2]; Zaire ebolavirus, Vero, 24 h",0.02 µM
same,EC50,[3]; [11],0.18 µM
